According to ChEMBL document CHEMBL1133493, “N-acylated alpha-(3-pyridylmethyl)-beta-aminotetralin antagoinists of the human neuropeptide Y Y5 receptor” (Bioorg Med Chem Lett, 2000):

Legend:
[1] = target: T1, Neuropeptide Y receptor type 5 (Homo sapiens, UniProt Q15761); assay: Inhibition of binding of radioligand [125I]PYY to the human Neuropeptide Y receptor type 5, using a stably transfected HEK293 cell line; format: cell-based
T1 sequence (Q15761 whole entry): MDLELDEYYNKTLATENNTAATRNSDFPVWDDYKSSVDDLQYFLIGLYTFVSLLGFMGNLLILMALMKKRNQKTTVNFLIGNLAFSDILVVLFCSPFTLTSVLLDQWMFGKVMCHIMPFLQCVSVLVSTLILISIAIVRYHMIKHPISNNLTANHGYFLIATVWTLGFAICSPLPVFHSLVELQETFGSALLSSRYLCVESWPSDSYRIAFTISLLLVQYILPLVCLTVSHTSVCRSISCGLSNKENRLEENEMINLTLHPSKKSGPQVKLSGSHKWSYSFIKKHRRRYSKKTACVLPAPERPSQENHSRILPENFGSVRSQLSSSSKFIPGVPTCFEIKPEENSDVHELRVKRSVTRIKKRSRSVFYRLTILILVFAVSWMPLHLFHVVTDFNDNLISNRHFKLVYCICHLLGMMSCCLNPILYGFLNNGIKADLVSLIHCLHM

[2] = target: T2, Neuropeptide Y receptor type 5 (Homo sapiens) (UniProt Q15761); assay: Antagonist potency by inhibition of peptide YY (PYY)-induced incorporation of [35S]GTP-gamma-S into membranes prepared from NPY5 receptor expressing cells, in the presence of 300 nM PYY; format: functional
T2 sequence (whole entry): T1 sequence (Q15761 whole entry)

Row | Compound | IC50 [1] [µM] | Kb [2] [µM]
1 | CC(C)(C)OC(=O)NC[C@H]1CC[C@H](C(=O)NC2CCc3cc(F)ccc3C2Cc2cccnc2)CC1 (stereo partly specified) | 0.016 | 
2 | O=C(Cc1ccccc1)NC[C@H]1CC[C@H](C(=O)NC2CCc3cc(F)ccc3C2Cc2cccnc2)CC1 (stereo partly specified) | 0.114 | 
3 | COc1ccc2c(c1)CCC(NC(=O)CN1CCC(n3c(=O)[nH]c4ccccc43)CC1)C2Cc1cccnc1 (stereo unspecified) | 0.075 | 
4 | O=C(NC[C@H]1CC[C@H](C(=O)NC2CCc3cc(F)ccc3C2Cc2cccnc2)CC1)c1ccccc1 (stereo partly specified) | 0.039 | 
5 | O=C(CN1CCC(NC(=O)Oc2ccccc2)CC1)NC1CCc2cc(F)ccc2C1Cc1cccnc1 (stereo unspecified) | 0.052 | 
6 | O=C(CN1CC[C@H](NC(=O)c2ccccc2)C1)NC1CCc2cc(F)ccc2C1Cc1cccnc1 (stereo partly specified) | 0.026 | 
7 | O=C(CN1CCC(NC(=O)Nc2ccccc2)CC1)NC1CCc2cc(F)ccc2C1Cc1cccnc1 (stereo unspecified) | 0.236 | 
8 | O=C(CN1CCC(n2c(O)nc3ccccc32)CC1)NC1CCc2cc(O)ccc2C1Cc1cccnc1 (stereo unspecified) | 0.006 | 0.021
9 | O=C(NC[C@H]1CC[C@H](C(=O)NC2CCc3cc(F)ccc3C2Cc2cccnc2)CC1)Nc1ccccc1 (stereo partly specified) | 0.17 | 
10 | O=C(CN1CCC(n2c(O)nc3ccccc32)CC1)NC1CCc2cc(F)ccc2C1Cc1cccnc1 (stereo unspecified) | 0.025 | 0.021
11 | O=C(CN1CCC(n2c(=O)[nH]c3ccccc32)CC1)NC1CCc2ccccc2C1Cc1cccnc1 (stereo unspecified) | 0.022 | 
12 | O=C(NC[C@H]1CC[C@H](C(=O)NC2CCc3cc(F)ccc3C2Cc2cccnc2)CC1)Oc1ccccc1 (stereo partly specified) | 0.031 | 
13 | O=C(Cc1ccccc1)NC1CCN(CC(=O)NC2CCc3cc(F)ccc3C2Cc2cccnc2)CC1 (stereo unspecified) | 0.036 | 

Further lines, results first:

Row | IC50 [1] [µM] | Kb [2] [µM] | Compound
14 | 0.045 |  | CC(C)(C)OC(=O)NC1CCN(CC(=O)NC2CCc3cc(F)ccc3C2Cc2cccnc2)C1 (stereo unspecified)
15 | 0.03 |  | CC(C)(C)OC(=O)N[C@@H]1CCN(CC(=O)NC2CCc3cc(F)ccc3C2Cc2cccnc2)C1 (stereo partly specified)
16 | 0.017 |  | CC(C)(C)OC(=O)N[C@H]1CCN(CC(=O)NC2CCc3cc(F)ccc3C2Cc2cccnc2)C1 (stereo partly specified)
17 | 0.037 |  | CC(C)(C)OC(=O)NC1CCN(CC(=O)NC2CCc3cc(F)ccc3C2Cc2cccnc2)CC1 (stereo unspecified)
18 | 0.14 |  | CC(C)(C)NC(=O)NC1CCN(CC(=O)NC2CCc3cc(F)ccc3C2Cc2cccnc2)CC1 (stereo unspecified)
19 | 0.028 |  | O=C(CN1CCC(NC(=O)c2ccccc2)CC1)NC1CCc2cc(F)ccc2C1Cc1cccnc1 (stereo unspecified)
